Literature values, collected in patent US20160114057A1, “MODULAR PROTEIN DRUG CONJUGATE THERAPEUTIC” (ZYMEWORKS INC., priority 2013, published 2016).
Like-named read-outs stand apart in the source and are kept apart here. Where a SMILES comes first, the peptide text is derived from it. [ ]: non-standard residue; d: D form. Aoe = N[C@@H](CCCCCC(=O)[C@@H]1CO1)C(=O)O; Aib = CC(C)(N)C(=O)O

Key:
tumors in animal models = details: tumor types as in Table 1
HT-29 (colon) = details: cell culture
KB = details: KB
[1] = i.p. in mice
[2] = tested on: A-549 (epidermoid carcinoma)
histone deacetylase = details: inhibits histone deacetylase
various tumor cell lines = details: P388, K562, A431, MKN28; read-out: IC50 (for all)
[3] = tested on: NCI tumor panel (60 cell line); details: NCI tumor panel; range over cell lines
[4] = human
[5] = not given; remark: listed apart in the source
[6] = not given; remark: listed apart in the source
MEL-28 = details: cell culture
[7] = tested on: CD33+ cells (HL-60, NOMO-1, and NKM-1); details: at 100 ng/mL

C=C1C[C@@H]2CCO[C@H]3[C@@H]4C[C@H]5CC[C@H](CC(=O)C[C@@H]6[C@@H](OC)[C@@H](C[C@H](O)CO)O[C@H]6C[C@H]6O[C@@H](CC[C@@H]1O2)C[C@@H](C)C6=C)O[C@@H]5[C@@H]1OCC[C@@H]3O[C@H]41 [Halichondrin B analogs]
activity in animal models (in words) (tumors in animal models): active (tumor

NC[C@H]1[C@H]2CN3C(=O)c4cccn4[C@H]4NC(N)=NC43[C@H]2[C@@]2(N=C(N)N[C@@H]2O)[C@H]1Cl (some centres unmarked) [Palauamine]
IC50 (HT-29 (colon)): 2 HT-29 (colon) micrograms/mL | IC50 (KB; cell culture): 10 KB micrograms/mL | IC50 (A549 (lung); cell culture, A549): 0.2 A549 (lung) micrograms/mL | LD50 [1]: is 13 mg/Kg | IC50 (P388; cell culture): 0.1 P388 micrograms/mL

C/C1=C\C(C)C(C)OC(=O)CC(c2ccc(O)cc2)NC(=O)C(Cc2c(Cl)[nH]c3ccccc23)N(C)C(=O)C(C)NC(=O)C(C)C1 (centres unmarked) [Chondramide D]
IC50 (SK-OV-3 (ovary)): 5 nM | IC50 (U-937 (lymphoma)): 3 nM | IC50 (A549 (lung); A549 (lung), read-out: Activity (IC50)): 14 nM | IC50 [2]: 5 nM | IC50 (A-498 (kidney)): 15 nM

CC1(C)NC(=O)[C@H](CCCCCC(=O)[C@@H]2CO2)NC(=O)[C@H]2CCCN2C(=O)[C@H](Cc2ccccc2)NC1=O [Chlamydocin] (cyclo([Aib]F[dP][Aoe]))
IC50 (histone deacetylase): 1.3 nM

COc1c(O)c2c(c3cc(C(=O)N4CCc5c4c(O)c(OC)c4[nH]c(C(=O)N6CC7CC78C6=CC(=O)c6[nH]cc(C)c68)cc54)[nH]c13)CCN2C(C)=O (centres unmarked) [Gilvusmycin]
IC50 (various tumor cell lines): < 1 nM | IC50 (K562 (CML)): 0.86 K562 (CML) ng/mL | IC50 (MKN28 (GI)): 0.75 MKN28 (GI); ng/mL | IC50 (A431 (EC)): 0.72 A431 (EC) ng/mL | IC50 (P388): 0.08 P388 ng/mL

C/C=C1\NC(=O)[C@H]2CSSCC/C=C/[C@H](CC(=O)N[C@H](C(C)C)C(=O)N2)OC(=O)[C@H](C(C)C)NC1=O [FR-901228]
Toxicity (in words): toxicity, lymphoid | IC50 [3]: 0.56 to 4.1 nM | dose limiting toxicity [4]: (human) 18 mg/Kg; | toxic dose (LD50) ([5]; ip): 6.4 mg/kg | toxic dose (LD50) ([5]; iv): 10 mg/kg | t1/2 ([6]; human): t1/2 of 8 hrs

CCC1/C=C/C=C/CC(C)C(O)C(C)(O)C(=O)CC(O)C(C)C(O)C(C)C(O)C(C)/C=C/C(=O)OC2C(C)C(CC1)OC1(CCC(C)C(CC(C)O)O1)C2C (centres unmarked) [BE-56384]
IC50 (DLD-1): 34 DLD-1 ng/mL | IC50 (colon 26): 0.29 colon 26 ng/mL | IC50 (P388): 0.1 P388 ng/mL | IC50 (PC-13): 0.12 PC-13 ng/mL | IC50 (MKM-45): 0.12 MKM-45 ng/mL

CCSC1SCC2C(=O)N(C)C3(CC3C)C(=O)OCC(NC(=O)c3nc4ccccc4cc3O)C(=O)NC(C)C(=O)N(C)C1C(=O)N(C)C1(CC1C)C(=O)OCC(NC(=O)c1nc3ccccc3cc1O)C(=O)NC(C)C(=O)N2C (centres unmarked) [SW-163E]
Toxicity (in words): low toxicity (mice | IC50 (HL-60): 1.3 nM | IC50 (KB; read-out: Activity (IC50)): 0.4 nM | IC50 (colon): 1.6 nM | IC50 (P388; read-out: Activity (IC50)): 0.3 nM | IC50 (A2780): 0.2 nM

C=CC(C)(C)OC[C@H]1NC(=O)[C@H]([C@@H](C)OC(C)(C)C=C)NC(=O)C2CSC(N2)[C@@H](Cc2ccccc2)NC(=O)[C@@H]2CCCN2C(=O)C(C)NC(=O)[C@H]([C@@H](C)CC)NC1=O (some centres unmarked) [Trunkamide A]
IC50 (MEL-28): 1.0 MEL-28 micrograms/mL | IC50 (HT-29 (colon)): 0.5 HT-29; micrograms/mL | IC50 (A549 (lung); cell culture, A549): 0.5 A549; micrograms/mL | IC50 (P388; cell culture): 0.5 P388; micrograms/mL

C=CCNC1=C2C[C@@H](C)C[C@H](OC)[C@H](O)[C@@H](C)/C=C(\C)[C@H](OC(N)=O)[C@@H](OC)/C=C\C=C(/C)C(=O)NC(=CC1=O)C2=O [Variant 17-AAG]
activity in animal models (in words) (tumors in animal models): models active | t1/2 ([6]; i.v.): ~1.5 h

gemtuzumab ozogamicin
Toxicity (in words): mild toxicity | killing of CD33+ cells (in words) [7]: Kills CD33+ cells

CC[C@@H]1/C=C/C=C/C[C@H](C)[C@@H](O)[C@](C)(O)C(=O)[C@H](C)[C@@H](O)[C@H](C)C(=O)[C@H](C)[C@@H](O)[C@H](C)/C=C/C(=O)O[C@H]2[C@@H](C)[C@@H](CC1)O[C@@]1(CC[C@@H](C)[C@@H](C[C@H](C)O)O1)[C@@H]2CC [NK-1301129]
Activity (IC50) (colon): 25 ng/mL colon | Activity (IC50) (lung): 8.5 ng/mL lung
